PubChem BioAssay (NCI)
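All cell lines were grown in 96-well plates and treated with compound for 48 hours. GI50: concentration for 50% inhibition of growth. TGI is the concentration that stops growth completely.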

Tests used:
Test in all cases: NCI tumour cell line growth inhibition, 48 h
DMS 114 small cell lung = test system: DMS 114 small cell lung
DMS 273 small cell lung = test system: DMS 273 small cell lung
KM20L2 colon = test system: KM20L2 colon
LXFL 529 NSCLC = test system: LXFL 529 NSCLC
RXF-631 renal = test system: RXF-631 renal
SNB-78 CNS = test system: SNB-78 CNS
XF 498 CNS = test system: XF 498 CNS
MDA-N = test system: MDA-N
HOP-18 NSCLC = test system: HOP-18 NSCLC

Row | SMILES | TGI (DMS 114 small cell lung) [µM] | TGI (DMS 273 small cell lung) [µM] | TGI (KM20L2 colon) [µM] | TGI (LXFL 529 NSCLC) [µM] | TGI (RXF-631 renal) [µM] | TGI (SNB-78 CNS) [µM] | TGI (XF 498 CNS) [µM] | TGI (MDA-N) [µM] | TGI (HOP-18 NSCLC) [µM] | further results
1 | CCCCCCC[CH2][Sn]1([CH2]CCCCCCC)[O]C(=O)c2cccnc2[S]1 | > 100 | > 100 | > 100 | > 100 | > 100 | > 100 | > 100 |  |  | GI50 (DMS 114 small cell lung): > 100 µM; GI50 (DMS 273 small cell lung): > 100 µM; GI50 (KM20L2 colon): > 100 µM; GI50 (LXFL 529 NSCLC): > 100 µM; GI50 (RXF-631 renal): > 100 µM; GI50 (SNB-78 CNS): > 100 µM; GI50 (XF 498 CNS): 30.8 µM
2 | O=C(NCCCCN=c1cccccc1NCCCCNC(=O)OCc1ccccc1)OCc1ccccc1 | 29.4 | 31.3 | 26.1 |  | 26.1 | 71.1 | 18.6 |  |  | 
3 | COc1ccc(C(O)c2nccn2C)c(OC)c1 (stereo not drawn) |  |  |  |  |  |  |  | > 100 |  | 
4 | O=c1c2ccccc2sc2cccc(NCCCN3CCN(CCCNc4cccc5sc6ccccc6c(=O)c45)CC3)c12 |  |  |  |  |  |  |  | > 100 |  | 
5 | COc1ccc2oc(-c3cccnc3)cc(=O)c2c1 | > 100 | > 100 |  | > 100 | > 100 |  | > 100 |  |  | 
6 | CC(=O)OC12c3ccccc3-c3ccccc3C1C1C(=O)N(C)C(=O)C12Cl (stereo not drawn) |  |  |  |  |  |  |  | > 10 |  | 
7 | C1CSCCSCCS1 |  |  |  |  |  |  |  | > 100 |  | 
8 | COC1C(O)=C2C(=O)O/C(C)=C/C=C/C=C/C=C\CC(c3ccccc3)NC(=O)\C=C/C=C\C=C\C=C\[C@@]2(C)[C@@H]1O (stereo partly drawn) | 0.357 |  | 0.165 |  |  |  | 0.304 | 0.265 |  | 
9 | CCOc1ccc(N2C(=O)/C(=C/c3ccc(N(CCC#N)CCC#N)cc3)N=C2c2cc([N+](=O)[O-])ccc2Cl)cc1 | > 100 | 40.8 |  | 95 | > 100 | > 100 |  |  | > 100 | 
10 | CCOC(=O)C1(c2ccccc2)CCC(=O)CC1 | > 100 | > 100 | > 100 | > 100 | > 100 | > 100 |  |  | > 100 | 
11 | Cc1ccc(S(=O)(=O)N/N=C/c2oc(-c3ccncc3)c(-c3ccncc3)c2[N+](=O)[O-])cc1 |  | > 100 | > 100 | > 100 | > 100 | > 100 | > 100 |  | > 100 | 
12 | O=C1NC(=S)NNC12c1ccccc1-c1ccccc12 |  |  |  |  |  |  |  | > 10 |  | 
13 | C[C@H]1NC(=O)C2CCCCN2C(=O)CN(C)C(=O)CNC(=O)C2CCCCN2C(=O)[C@@H](NC(=O)c2nc3ccccc3cc2O)[C@@H](C)NC(=O)C2CCCCN2C(=O)CN(C)C(=O)CNC(=O)[C@@H]2CCCCN2C(=O)C1NC(=O)c1nc2ccccc2cc1O (stereo partly drawn) | 0.703 | 1.07 | 10.4 | 0.646 |  | 11.5 |  |  |  | 
14 | Cc1[nH]c2ccccc2c1-c1cc(-c2cc(-c3c(C)[nH]c4ccccc34)on2)no1 |  |  |  |  |  |  |  | 48.3 |  | 
15 | O=C(O)[C@H](NS(=O)(=O)c1ccc2ccccc2c1)c1ccccc1 |  | > 100 | > 100 | > 100 | > 100 |  | > 100 |  | > 100 | 
16 | CCOc1ccc2c(c1)[n+]([O-])c(-c1ccccc1Cl)c(N)[n+]2[O-] | > 100 | > 100 | > 100 | > 100 | > 100 | > 100 | > 100 |  | > 100 | 
17 | Cc1ccc(NC(=O)C2C(=O)N(c3ccc(C)c(C)c3)C(=O)C2N=N)cc1C (stereo not drawn) | > 100 | > 100 | > 100 | > 100 | > 100 | > 100 | > 100 |  | > 100 | 
18 | O=C1[C@@H]2C3c4ccccc4C([C@@H]2C(=O)N1c1ccccc1)S3(=O)=O | > 100 | > 100 | > 100 | > 100 | > 100 | > 100 | > 100 |  | > 100 | 
19 | CCN1CCN=c2c3cc(OC)ccc3n3cnc4ccc1c2c43 |  |  |  |  |  |  |  | 1.11 |  | 
20 | COC(=O)[C@]1(C)CCCC2(C)C1CC[C@H]1C=C(C)[C@H]3CCC12C3 (stereo partly drawn) | > 100 |  | > 100 | > 100 | > 100 | > 100 | > 100 |  |  | 
21 | CC(CC(=O)O)C(C(=O)O)C(=O)O (stereo not drawn) |  |  |  |  |  |  |  | > 100 |  | 
22 | Nc1nc(N)c(N=Nc2ccc([As](=O)(O)O)cc2)c(=O)[nH]1 |  |  |  |  |  |  |  | > 100 |  | 
23 | COc1cccc(/C=N/[N-]C(=O)c2ccncc2)c1[O-].[Cu+2].[OH3+] | > 100 | > 100 | > 100 | > 100 |  | > 100 | > 100 |  | > 100 | GI50 (DMS 114 small cell lung): 71.1 µM; GI50 (DMS 273 small cell lung): 48.2 µM; GI50 (HOP-18 NSCLC): > 100 µM; GI50 (KM20L2 colon): 47.9 µM; GI50 (LXFL 529 NSCLC): 57.7 µM; GI50 (SNB-78 CNS): > 100 µM; GI50 (XF 498 CNS): > 100 µM
24 | N#Cc1c(-c2ccc(F)cc2)c(-c2ccc(F)cc2)nn(CCO)c1=O |  |  |  |  |  |  |  | 0.121 |  | 
25 | O=C(c1ccc(Cl)cc1)c1cnc(Nc2ccccc2Cl)s1 | 66.7 | 42.9 |  | 32.8 |  |  |  | 50.1 |  | 
